Numbers after ± are expanded uncertainties.
Settings: 101.33 kPa, Liquid, Vibrating tube method

SMILES: O [water]
- mass density (323.15 K): 988.035 ± 0.053 kg/m3
- mass density (328.15 K): 985.693 ± 0.055 kg/m3
- mass density (333.15 K): 983.196 ± 0.057 kg/m3
- mass density (338.15 K): 980.551 ± 0.059 kg/m3
- mass density (343.15 K): 977.765 ± 0.061 kg/m3
